The source of these data is article PMC5247654, “Structural Mechanism Underpinning Cross-reactivity of a CD8^+ T-cell Clone That Recognizes a Peptide Derived from Human Telomerase Reverse Transcriptase” (The Journal of Biological Chemistry, 2016).

The subject of series [1] is ILA1 TCR. The conditions noted are these: SPR, cited from earlier work; for Kd: equilibrium binding.
Series [2] can be described thus: pMHC thermal stability by circular dichroism. The conditions noted are these: CD thermal denaturation at 218 nm, PBS, ∼3 μM, 0.1-cm cell, two-state trimer-to-monomer fit. The format is physicochemical. On the procedure: Thermal stability of the HLA-A*0201-peptide complexes was assessed by circular dichroism spectroscopy, monitoring the change in ellipticities at 218 nm upon heating as described ([31]). Briefly, samples were prepared in PBS at a concentration of ∼3 μM and measured in 0.1-cm quartz cells. Melting curves were analyzed assuming a two-state trimer-to-monomer transition from the native to unfolded conformation and fitted as described ([43]). As all protein complexes aggregated to various degrees upon unfolding, the ellipticity of the unfolded state was set as a constant of −1.35 M^−1 cm^−1 ([44]).
In general terms: CD spectra are sensitive to the conformation of chiral molecules.

Series [3] has as its target human telomerase reverse transcriptase peptide on HLA-A*02:01 (human). As to the kind of experiment: van 't Hoff analysis of SPR affinities at 5-37 °C; soluble, other.
For series [4], the target named is altered peptide ligand of human telomerase reverse transcriptase 540-548 peptide on HLA-A*02:01 (human). The series can be described thus: SPR, equilibrium binding; data from (16); soluble, other.
The target of series [5] is altered peptide ligand of human telomerase reverse transcriptase 540-548 (A2-ILA8E) peptide on HLA-A*02:01 (human). As to the kind of experiment: SPR, equilibrium binding; kinetics n/m; data from (39); extremely weak against the index A2-ILA ([…] μM); soluble, other. (In general: SPR reads the build-up and loss of mass on a sensor chip optically.)
In series [6] the target is altered peptide ligand of human telomerase reverse transcriptase 540-548 peptide on HLA-A*02:01 (human). As to the kind of experiment: SPR, equilibrium binding; kinetics n/m (too fast to measure); data from (39); soluble, other.
Series [7] addresses altered peptide ligand of human telomerase reverse transcriptase 540-548 (A2-ILA3G8R) peptide on HLA-A*02:01 (human). As to the kind of experiment: SPR, equilibrium binding at 25 °C, new data of this article; soluble, other.
In series [8] the target is altered peptide ligand of human telomerase reverse transcriptase 540-548 peptide on HLA-A*02:01 (human). As to the kind of experiment: SPR, equilibrium binding; kinetics n/m (too fast to measure); data from (39); soluble, other. This is another data set of the same source.
Series [9] shares this target. The series can be described thus: SPR, equilibrium binding; data from (17); soluble, other.
For series [10], the target named is altered peptide ligand of human telomerase reverse transcriptase 540-548 (A2-ILA8R) peptide on HLA-A*02:01 (human). The series can be described thus: SPR, equilibrium binding at 25 °C, new data of this article; kinetics n/m (too fast to measure); much weaker than the index A2-ILA ([…] μM); soluble, other.
Series [11] deals with altered peptide ligand of human telomerase reverse transcriptase 540-548 (A2-ILA8T) peptide on HLA-A*02:01 (human). The series can be described thus: SPR, equilibrium binding; data from (39); soluble, other.
Series [12] deals with altered peptide ligand of human telomerase reverse transcriptase 540-548 peptide on HLA-A*02:01 (human). As to the kind of experiment: SPR, equilibrium binding; data from (17); soluble, other. The source holds these as a separate data set.
The target in series [13] is ILA1 TCR. The series can be described thus: Surface plasmon resonance binding of ILA1 TCR to HLA-A*0201-ILA peptide variants. The conditions noted are these: 25 °C; for Kd: equilibrium binding, SPR, serial dilutions in duplicate, three independent experiments. More on the design: species or system human. The method, then: Binding analysis was performed in duplicate using a BIAcoreT200^TM equipped with a CM5 sensor chip as described previously ([45]). Approximately 200–500 response units of HLA-A*0201-[…] or HLA-A*0201-[…] peptide complex was attached to the CM5 sensor chip at a slow flow rate of 10 μl/min to ensure uniform distribution on the chip surface. […] For equilibrium analysis, 10 serial dilutions were prepared in duplicate for each sample and injected over the relevant sensor chips at 25 °C. TCR was injected over the chip surface using kinetic injections at a flow rate of 45 μl/min using HLA-A*0201-[…] as a negative control surface on flow cell 1. Results were analyzed using BIAevaluation^TM 3.1, Excel, and Origin 6.0 software. The equilibrium dissociation constant (KD) values were calculated assuming a 1:1 interaction by plotting specific equilibrium binding responses against protein concentrations followed by non-linear least square fitting of the Langmuir binding equation. For kinetics analysis, the kon and koff values were calculated assuming 1:1 Langmuir binding, and the data were analyzed using a global fit algorithm (BIAevaluation 3.1).

The mark [14] stands for this setting: SPR BIAcore T200, ILA1 TCR injected over immobilised pMHC, 1:1 Langmuir global fit.

Like-named read-outs stand apart in the source and are kept apart here.

The koff is a measure of how fast the partners let go of each other. What is called kon is the rate constant with which the complex forms. The term Kd denotes a measure of binding affinity in units of concentration.

Take ILAKFLHTL: in the series with ILA1 TCR [1], the off-rate constant (koff) is 0.08 s⁻¹, the kon was 2200 M⁻¹ s⁻¹ and the Kd is 28 ± 5 µM. Besides, in series [2], the “apparent Tm (melting temperature)” value turned out to be 58.7 °C.

As to ILAKFLHYL, at ILA1 TCR [1], the Kd was 22.6 ± 2.1 µM.

In the case of ILA1 TCR, the TΔS in series [3] was found to be 24.5 kJ/mol. The Kd in series [4] was 117 µM; in series [5] it was over 500 µM; in [6], 82 µM; in [7], 1 µM; in [8] it was 22.6 µM; in series [9], 2.5 µM. Also, the dissociation constant (Kd) came out at 151 µM in series [10], 28 µM in series [11] and 242 µM in series [12].

Regarding ILALFLHWL, in the series with ILA1 TCR [1], the off-rate constant (koff) is 0.2 s⁻¹, the association rate constant (kon) was 1700 M⁻¹ s⁻¹ and the dissociation constant (Kd) was 117 ± 6 µM.

In turn, ILAKFLHRL had a dissociation constant Kd on ILA1 TCR [13] of 151 ± 8 µM. The “apparent Tm (melting temperature)” value in series [2] amounted to 60.9 °C.

Turning to ILAKYLHWL, in the series with ILA1 TCR [1], the off-rate constant (koff) was 0.32 s⁻¹, the kon is 1300 M⁻¹ s⁻¹ and the dissociation constant (Kd) was 242 ± 20 µM.

In the series on ILA1 TCR [13] (setting [14]), ILGKFLHRL registered an off-rate (koff) of 0.16 s⁻¹ and a kon of 30000 M⁻¹ s⁻¹. The Kd on ILA1 TCR [13] is 1 ± 0.1 µM. Further, the “apparent Tm (melting temperature)” value in [2] is 55.9 °C.

Turning to ILAKFLHWL, in series [2], the “apparent Tm (melting temperature)” value was determined as 54.5 °C.

ILGKFLHWL: in the series on ILA1 TCR [1], the koff was 0.05 s⁻¹, the association rate constant (kon) was 16000 M⁻¹ s⁻¹ and the dissociation constant Kd is 3.7 ± 0.2 µM. The “apparent Tm (melting temperature)” value in [2] amounted to 49.8 °C.

Consider ILGKFLHTL, for which, in the series on ILA1 TCR [1], the koff was 0.05 s⁻¹, the kon was 19500 M⁻¹ s⁻¹ and the dissociation constant Kd is 2.5 ± 0.5 µM. The “apparent Tm (melting temperature)” value in series [2] came out at 55.6 °C.

Take ILAKFLHEL: at ILA1 TCR [1], the Kd is over 500 µM. Besides, the “apparent Tm (melting temperature)” value in series [2] was found to be 58.8 °C.

In the case of ILAKFLYWL, on ILA1 TCR [1], the dissociation constant (Kd) was 82 ± 8 µM.
